According to patent publication US20090215906A1 (priority 2005, published 2009):
Where two headings read alike, the source gives them in different places.

What was measured:
[1] = test system: Male Baboons; test: Effects of Clomids on serum testosterone and prolactin in male baboons; format: in vivo, Baboon; settings: 1.5 mg/kg for 12 days, in words
Source text: There were no changes in serum LH or FSH. […] There was also no change in body weight during the 12 day study.

[2] = test system: Male Baboons; test: Effects of Clomids on serum cholesterol in male baboons; format: in vivo, Baboon; settings: 1.5 mg/kg for 12 days
Source text: (§1) The samples analyzed were sera taken on the day of first treatment before being given test article (day 0), after 12 days of treatment (day 12) and 7 days after the last treatment (end or washout).

[3] = test system: men; settings: cited from earlier work
[4] = test system: Male Baboons; settings: in vivo, 1.5 mg/kg
Source text: as §1

[5] = test system: hypogonadal men
Description: (§2) Half of the men in each of the Androxal™ and placebo arms were randomized into cohorts that underwent in-clinic sessions on days 1 and 14 to determine pharmacokinetic parameters for Androxal™ as well as cyclical changes in testosterone. The placebo and Androxal™ doses were administered in a double blind fashion. The Androgel® cream was administered in an open label fashion. Half of the Androgel® patients underwent in-clinic sessions similar to the other patients in the study. Following the two week drug exposure patients were followed for an additional seven to ten days to determine the status of their testosterone levels.

[6] = test system: hypogonadal men; remark: listed apart in the source
Description: as §2

[7] = test system: Male Baboons; test: Effects of Clomids on clinical chemistry and hematology parameters in male baboons
Source text: as §1

[8] = men, after 2 months, Guay et al. 1995

Structure (SMILES) | effect on total serum testosterone [1] | serum cholesterol levels (in words) [2] | LH, FSH, and testosterone [3, 8] | erectile dysfunction [3, 8] | semen quality or fertility ([3]; men, after 6 months of treatment, WHO study) | free and total testosterone ([3]; men, Tenover et al. 1987) | FSH, LH ([3]; young and old men after treatment, Tenover et al. 1987) | effects on hematocrit [4] | effects on the red blood cell population [4] | changes in testosterone from baseline testosterone levels (in words) ([5]; all doses) | serum levels of LH ([5]; during treatment) | reduction in triglycerides ([6]; average, non-dose dependent, after two weeks of therapy) | side effects different than placebo ([6]; two week exposure) | counts of eosinophiles ([7]; 1.5 mg/kg for 12 days) | effects on the red blood cell population ([7]; 1.5 mg/kg for 12 days) | lymphocyte count ([7]; 1.5 mg/kg for 12 days) | serum creatinine values ([7]; between day 0 and Day 12) | per cent of granulocytes in the blood ([7]; very strong after the 7-day washout)
CCN(CC)CCOc1ccc(C(=C(Cl)c2ccccc2)c2ccccc2)cc1 [Clomid, clomiphene] | more variable total testosterone levels | slight increase | increase | no effects | no changes | increases | increased | – | – | – | – | – | – | – | – | – | – | –
CCN(CC)CCOc1ccc(/C(=C(/Cl)c2ccccc2)c2ccccc2)cc1 [Zuclomid, cis-clomiphene] | – | – | – | – | – | – | – | substantive effects | substantive effects | – | – | – | – | – | – | – | – | –
CCN(CC)CCOc1ccc(/C(=C(\Cl)c2ccccc2)c2ccccc2)cc1 [Enclomid, trans-clomiphene] | significant increases | – | – | – | – | – | – | – | – | statistically significant changes | statistically increase | 19.1% | no side effects | raising | substantive effects | increase | no differences | lowering
